Reference: ChEMBL document CHEMBL3045870, “Some new thiazolyl thiazolidinedione derivatives as aldose reductase inhibitors” (Med Chem Res, 2007)

Molecular target: Aldo-keto reductase family 1 member B1 (Rattus norvegicus) (UniProt P07943)
Experiment: Inhibition of Rattus norvegicus (rat) kidney aldose reductase using D-L-glyceraldehyde as substRattus norvegicus (rat) e assessed as decrease in NADPH level at 10^-4 M measured for 5 min by spectrophotometric analysis

Row | inhibition [%] | SMILES
1 | 0 | O=C1S/C(=C\c2sc(SCc3ccc(Cl)cc3)nc2Cl)C(=O)N1Cc1ccc(F)cc1
2 | 0 | O=C1S/C(=C\c2sc(SCc3ccc(Cl)cc3)nc2Cl)C(=O)N1Cc1ccc(Cl)cc1
3 | 1.56 | O=C1S/C(=C\c2sc(SCc3ccc(Cl)cc3)nc2Cl)C(=O)N1Cc1ccc(Cl)cc1Cl
4 | 0 | O=C1S/C(=C\c2sc(SCc3ccc(Cl)cc3)nc2Cl)C(=O)N1Cc1ccc(Br)cc1
5 | 2.49 | O=C1S/C(=C\c2sc(N3CCCCC3)nc2Cl)C(=O)N1Cc1ccc([N+](=O)[O-])cc1
6 | 0 | O=C1S/C(=C\c2sc(SCc3ccc(Cl)cc3)nc2Cl)C(=O)N1Cc1ccc([N+](=O)[O-])cc1
7 | 0 | O=C1S/C(=C\c2sc(SCc3ccc(Cl)cc3)nc2Cl)C(=O)N1Cc1ccccc1
8 | 0 | O=C1S/C(=C\c2sc(N3CCCCC3)nc2Cl)C(=O)N1Cc1ccccc1
9 | 3.27 | O=C1S/C(=C\c2sc(N3CCCCC3)nc2Cl)C(=O)N1Cc1ccc(Cl)cc1Cl
10 | 0 | O=C1S/C(=C\c2sc(N3CCCCC3)nc2Cl)C(=O)N1Cc1ccc(F)cc1
11 | 0.62 | O=C1S/C(=C\c2sc(N3CCCCC3)nc2Cl)C(=O)N1Cc1ccc(Br)cc1
12 | 0.62 | O=C1S/C(=C\c2sc(N3CCCCC3)nc2Cl)C(=O)N1Cc1ccc(Cl)cc1
